Reference: US5158948A (Abbott Laboratories, priority 1991, dated 1992)
Where a name gives a salt, the structure may show the parent alone. Read-outs that look alike come from different tables or passages of the source.

How the values were obtained:
dopamine D-1 receptor [1] = target: T1, dopamine D-1 receptor (Rattus norvegicus, UniProt P18901); experiment: D-1 receptor binding assay, competition with [^125 I]SCH-23982 in homogenized rat caudate
Description: The compounds compete with the radiolabeled ligand for occupancy of the receptors and the molar potency of each compound was quantified.

dopamine D-2 receptor = target: T2, dopamine D-2 receptor (Rattus norvegicus, UniProt P61169); experiment: D-2 receptor binding assay, competition with [^3 H]-spiperone in homogenized rat caudate; conditions: rat caudate homogenate
T2 construct: Homogenized rat caudate was the source of the D-2 receptors; from tissue; host or cells: rat caudate homogenate
T2 sequence (P61169 whole entry): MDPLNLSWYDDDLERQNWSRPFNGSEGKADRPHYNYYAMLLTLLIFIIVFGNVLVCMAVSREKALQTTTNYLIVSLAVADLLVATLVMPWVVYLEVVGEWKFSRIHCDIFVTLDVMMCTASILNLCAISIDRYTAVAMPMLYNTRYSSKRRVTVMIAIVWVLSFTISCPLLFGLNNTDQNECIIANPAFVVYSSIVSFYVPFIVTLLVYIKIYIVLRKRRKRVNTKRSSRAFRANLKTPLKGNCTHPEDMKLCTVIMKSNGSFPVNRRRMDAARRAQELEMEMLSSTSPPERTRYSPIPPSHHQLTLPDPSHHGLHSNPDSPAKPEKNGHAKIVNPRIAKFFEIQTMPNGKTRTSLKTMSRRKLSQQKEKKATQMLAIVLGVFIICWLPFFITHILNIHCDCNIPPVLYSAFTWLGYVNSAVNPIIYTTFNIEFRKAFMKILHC
Procedure: Homogenized rat caudate was the source of the D-2 receptors. […] A. Frey, T. E. Cote, C. […] The molar affinity of the compound for the receptor binding site was calculated by the same method used for the D-1 receptor assay, assuming a competitive interaction between the compound and the radiolabeled ligand.

D-1 receptor = experiment: D-1 antagonist activity in adenylate cyclase assay (antagonism of dopamine-induced increase in cAMP); type: biochemical; conditions: 10 μM dopamine; goldfish retina or rat striatum homogenate
Procedure: The functional activity of a compound was determined by assaying, in vitro, its ability to either stimulate the enzyme adenylate cyclase to produce more cAMP (agonist activity) or to antagonize a dopamine-induced increase in cAMP levels. The protocol for the adenylate cyclase assays was described by K. J. Watling and J. E. Dowling in J Neurochemistry, 1981, 36: 599 and by J. W. Kebabian, et al. in Proc Natl Acad Sci, USA, 1972, 69: 2145. In order to determine agonist activity, cell-free tissue homogenates are incubated in an ionic buffer solution containing ATP and the compound being evaluated. The tissue was obtained from either goldfish retina or rat striatum.
The Ki values were calculated as described by Y. C.

dopamine D-1 receptor [2] = target: T1, dopamine D-1 receptor; experiment: Rotation behavior: block of A-68930-induced rotation in rats with unilateral 6-hydroxydopamine lesion; type: in vivo; parameters: Homogenized rat caudate was incubated; from tissue; host or cells: rat caudate homogenate; conditions: subcutaneous, A-68930 1.0 μmol/kg s.c.
[3] = dose 10.0 μmol/kg, saline 1118 (Example 18), 1011 (Example 27)

T1 sequence (P18901 whole entry): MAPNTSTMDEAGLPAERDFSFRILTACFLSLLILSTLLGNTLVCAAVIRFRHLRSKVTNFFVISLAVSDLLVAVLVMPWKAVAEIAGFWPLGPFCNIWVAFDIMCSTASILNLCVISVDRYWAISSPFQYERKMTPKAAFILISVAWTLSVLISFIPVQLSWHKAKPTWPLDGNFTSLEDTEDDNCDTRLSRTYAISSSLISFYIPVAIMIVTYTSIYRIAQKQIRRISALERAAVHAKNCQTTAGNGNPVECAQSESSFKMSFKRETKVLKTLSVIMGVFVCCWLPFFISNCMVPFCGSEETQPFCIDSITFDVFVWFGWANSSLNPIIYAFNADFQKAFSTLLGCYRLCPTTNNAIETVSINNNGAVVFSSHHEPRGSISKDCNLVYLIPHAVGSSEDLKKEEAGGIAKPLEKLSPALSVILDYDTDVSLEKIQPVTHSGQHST

Ki (dopamine D-1 receptor [1]) [µM]	Ki (dopamine D-2 receptor) [µM]	IC50 (D-1 receptor) [µM]	Ki (D-1 receptor) [µM]	Number of Rotations/2 h (dopamine D-1 receptor [2]; dose 3.2 μmol/kg, saline group 1118) [Rotations/2 h]	Number of Rotations/2 h (dopamine D-1 receptor [2]; [3]) [Rotations/2 h]	Number of Rotations/2 h (dopamine D-1 receptor [2]; dose 32.0 μmol/kg, saline group 1118) [Rotations/2 h]	Ki (dopamine D-1 receptor [1]; read-out: D-1 Ki, rat caudate homogenate, [^125 I]SCH-23982) [µM]	Number of Rotations/2 h (dopamine D-1 receptor [2]; dose 3.0 μmol/kg, saline group 1011) [Rotations/2 h]	Number of Rotations/2 h (dopamine D-1 receptor [2]; dose 30.0 μmol/kg, saline group 1011) [Rotations/2 h]	Structure (SMILES)
8	4.2									CN1CCc2cc(O)c(O)cc2C2(CCCCc3ccccc32)C1 (centres unmarked) [Example 34, 7.8-Dihydroxy-3-methyl-1-(spiro-5'-6',7',8',9'-tetrahydro-5'H-benzocycloheptene)-2,3,4,5-tetrahydro-1H-3-benzazepine hydrobromide]
	> 100						0.65			Oc1cc2c(cc1O)C1(CCc3ccccc31)CNCC2 (centres unmarked) [Example 15, 7.8-Dihydroxy-1-(spiro-1'-indan)-2,3,4,5-tetrahydro-1H-3-benzazepine hydrobromide]
0.33	5.5	0.51	0.09							CN1CCc2cc(O)c(O)cc2C2(CCc3ccccc32)C1 (centres unmarked) [Example 16, 7,8-Dihydroxy-3-methyl-1-(spiro-1'-indan)-2,3,4,5-tetrahydro-1H-3-benzazepine formate]
0.16	9.5	0.13	0.02							COc1cc2c(cc1O)C1(CCc3ccccc31)CN(C)CC2 (centres unmarked) [Example 25, 8-Hydroxy-7-methoxy-3-methyl-1-(spiro-1'-indan)-2,3,4,5-tetrahydro-1H-3-benzazepine hydrochloride]
0.94	7.5									CN1CCc2cc(Br)c(O)cc2C2(CCCCc3ccccc32)C1 (centres unmarked) [Example 35, 7-Bromo-8-hydroxy-3-methyl-1-(spiro-5'-6',7',8',9'-tetrahydro-5'H-benzocycloheptene)-2,3,4,5-tetrahydro-1H-3-benzazepine hydrochloride]
23	136									Oc1ccc2c(c1)C1(CCCc3ccccc31)CNCC2 (centres unmarked) [Example 28, 8-Hydroxy-1-(spiro-1'-1',2',3',4'-tetrahydronapthalene)-2,3,4,5-tetrahydro-1H-3-benzazepine hydrochloride]
0.41	> 100	0.58	0.1							CN1CCc2ccc(O)cc2C2(CCc3ccccc32)C1 (centres unmarked) [Example 14, 8-Hydroxy-3-methyl-1-(spiro-1'-indan)-2,3,4,5-tetrahydro-1H-3-benzazepine hydrobromide]
1.5	112	3.24	0.56							COc1cc2c(cc1O)C1(CCCCc3ccccc31)CN(C)CC2 (centres unmarked) [Example 32, 8-Hydroxy-7-methoxy-3-methyl-1-(spiro-5'-6',7',8',9'-tetrahydro-5'H-benzocycloheptene)-2,3,4,5-tetrahydro-1H-3-benzazepine hydrochloride]
0.05	562	0.32	0.06							COc1cc2c(cc1O)C1(CCCc3ccccc31)CN(C)CC2 (centres unmarked) [Example 10, 8-Hydroxy-7-methoxy-3-methyl-1-(spiro-1'-1',2',3',4'-tetrahydronaphthalene)-2,3,4,5-tetrahydro-1H-3-benzazepine hydrochloride]
0.11	6.8	0.23	0.04							CSc1cc2c(cc1O)C1(CCCc3ccccc31)CN(C)CC2 (centres unmarked) [Example 11, 8-Hydroxy-7-(methylthio)-3-methyl-1-(spiro-1'-1',2',3',4'-tetrahydronaphthalene)-2,3,4,5-tetrahydro-1H-3-benzazepine hydrochloride]

The remaining lines, values behind:

Structure (SMILES)	Ki (dopamine D-1 receptor [1]) [µM]	Ki (dopamine D-2 receptor) [µM]	IC50 (D-1 receptor) [µM]	Ki (D-1 receptor) [µM]	Number of Rotations/2 h (dopamine D-1 receptor [2]; dose 3.2 μmol/kg, saline group 1118) [Rotations/2 h]	Number of Rotations/2 h (dopamine D-1 receptor [2]; [3]) [Rotations/2 h]	Number of Rotations/2 h (dopamine D-1 receptor [2]; dose 32.0 μmol/kg, saline group 1118) [Rotations/2 h]	Ki (dopamine D-1 receptor [1]; read-out: D-1 Ki, rat caudate homogenate, [^125 I]SCH-23982) [µM]	Number of Rotations/2 h (dopamine D-1 receptor [2]; dose 3.0 μmol/kg, saline group 1011) [Rotations/2 h]	Number of Rotations/2 h (dopamine D-1 receptor [2]; dose 30.0 μmol/kg, saline group 1011) [Rotations/2 h]
Oc1cc2c(cc1O)C1(CCCc3ccccc31)CNCC2 (centres unmarked) [Example 26, 7.8-Dihydroxy-1-(spiro-1'-1',2', 3',4'-tetrahydronapthalene)-2,3,4,5-tetrahydro-1H-3-benzazepine hydrobromide]	16.2	> 100								
CN1CCc2cc([N+](=O)[O-])c(O)cc2C2(CCc3ccccc32)C1 (centres unmarked) [Example 21, 8-Hydroxy-7-nitro-3-methyl-1-(spiro-1'-indan)-2,3,4,5-tetrahydro-1H-3-benzazepine hydrochloride]	1.32	39.2	1.38	0.24						
CN1CCc2cc(Br)c(O)cc2C2(CCc3ccccc32)C1 (centres unmarked) [Example 18, 7-Bromo-8-hydroxy-3-methyl-1-(spiro-1'-indan)-2,3,4,5-tetrahydro-1H-3-benzazepine hydrochloride]	0.01	5.9	0.05	0.01	491	412	154			
Oc1cc2c(cc1Br)CCNCC21CCc2ccccc21 (centres unmarked) [Example 17, 7-Bromo-8-hydroxy-1-(spiro-1'-indan)-2,3,4,5-tetrahydro-1H-2,3,4,5-tetrahydro-1H-3-benzazepine hydrochloride]	0.31	18	0.83	0.14						
COc1cc2c(cc1O)C1(CCc3ccccc31)CNCC2 (centres unmarked) [Example 24, 8-Hydroxy-7-methoxy-1-(spiro-1'-indan)-2,3,4,5-tetrahydro-1H-3-benzazepine hydrochloride]	0.81	> 100	0.53	0.13						
CN1CCc2ccc(O)cc2C2(CCCCc3ccccc32)C1 (centres unmarked) [Example 33, 8-Hydroxy-3-methyl-1-(spiro-5'-6',7',8',9'-tetrahydro-5'H-benzocycloheptene)-2,3,4,5-tetrahydro-1H-3-benzazepine hydrochloride]	3.41	8.8								
COc1cc2c(cc1O)C1(CCCc3ccccc31)CNCC2 (centres unmarked) [Example 9, 8-Hydroxy-7-methoxy-1-(spiro-1'-1',2',3',4'-tetrahydronaphthalene)-2,3,4,5-tetrahydro-1H-3-benzazepine hydrochloride]	2.61	> 100	15.7	2.73						
COc1cc2c(cc1O)C1(CCOc3ccccc31)CN(C)CC2 (centres unmarked) [Example 135, 8-Hydroxy-7-methoxy-3-methyl-1-(spiro-4'-(3',4'-dihydro-2'H-1'-benzopyran))-2,3,4,5-tetrahydro-1H-3-benzazepine hydrochloride]	0.16	0.66	0.96	0.17						
CN1CCc2cc(Br)c(O)cc2C2(CCCc3ccccc32)C1 (centres unmarked) [Example 31, 7-Bromo-8-hydroxy-3-methyl-1-(spiro-1'-1',2',3',4'-tetrahydronapthalene)-2,3,4,5-tetrahydro-1H-3-benzazepine hydrochloride]	0.03	10.1	0.14	0.02						
CN1CCc2cc(O)c(O)cc2C2(CCCc3ccccc32)C1 (centres unmarked) [Example 27, 7,8-Dihydroxy-3-methyl-1-(spiro-1'-1',2',3',4'-tetrahydronapthalene)-2,3,4,5-tetrahydro-1H-3-benzazepine hydrobromide]	0.84	> 100	2.29	0.4		652			913	119
Oc1cc2c(cc1Br)CCNCC21CCCc2ccccc21 (centres unmarked) [Example 30, 7-Bromo-8-hydroxy-1-(spiro-1'-1',2',3',4'-tetrahydronapthalene)-2,3,4,5-tetrahydro-1H-3-benzazepine hydrochloride]	0.68	14.6	0.92	0.16						
CN1CCc2cc(Br)c(O)cc2C2(CCOc3ccccc32)C1 (centres unmarked) [Example 137, 7-Bromo-8-hydroxy-3-methyl-1-(spiro-4'-(3',4'-dihydro-2'H-1'-benzopyran))-2,3,4,5-tetrahydro-1H-3-benzazepine hydrochloride]	0.02	> 100	0.14	0.03						
CN1CCc2ccc(O)cc2C2(CCCc3ccccc32)C1 (centres unmarked) [Example 29, 8-Hydroxy-3-methyl-1-(spiro-1'-1',2',3',4'-tetrahydronapthalene)-2,3,4,5-tetrahydro-1H-3-benzazepine hydrochloride]	0.44	112	4.24	0.74						
CN1CCc2ccc(O)cc2C2(CCOc3ccccc32)C1 (centres unmarked) [Example 136, 8-Hydroxy-3-methyl-1-(spiro-4'-(3',4'-dihydro-2'-H-1'-benzopyran))-2,3,4,5-tetrahydro-1H-3-benzazepine hydrochloride]	1.67	> 100	4.34	0.75						
Oc1ccc2c(c1)C1(CCc3ccccc31)CNCC2 (centres unmarked) [Example 13, 8-Hydroxy-1-(spiro-1'-indan)-2,3,4,5-tetrahydro-1H-3-benzazepine hydrobromide]	15.9	> 100								
